In this experiment the target is T1, Gastrin/cholecystokinin type B receptor (Homo sapiens, UniProt P32239).
T1 sequence (P32239 whole entry): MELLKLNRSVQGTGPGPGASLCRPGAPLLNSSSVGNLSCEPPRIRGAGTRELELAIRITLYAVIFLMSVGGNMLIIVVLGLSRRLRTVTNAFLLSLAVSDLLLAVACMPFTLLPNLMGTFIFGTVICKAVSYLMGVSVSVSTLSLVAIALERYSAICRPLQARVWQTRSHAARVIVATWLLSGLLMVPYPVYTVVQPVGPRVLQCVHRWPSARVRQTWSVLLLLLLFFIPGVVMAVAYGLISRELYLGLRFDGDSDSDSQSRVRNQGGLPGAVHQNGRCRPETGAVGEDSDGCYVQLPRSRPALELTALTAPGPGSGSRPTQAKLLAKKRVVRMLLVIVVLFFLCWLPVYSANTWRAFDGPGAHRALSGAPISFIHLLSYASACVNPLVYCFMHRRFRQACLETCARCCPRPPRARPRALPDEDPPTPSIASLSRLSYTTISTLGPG
The experiment is described as follows: Binding affinity to human CCK2R expressed in human A-431 cells. Format: cell-based.

This passage reports IC50 results from ChEMBL document CHEMBL5241078, “Emerging trends of receptor-mediated tumor targeting peptides: A review with perspective from molecular imaging modalities” (Eur J Med Chem, 2021).

In turn, `CSCCC[C@H](NC(=O)[C@H](Cc1c[nH]c2ccccc12)NC(=O)[C@H]1CCCCNC(=O)[C@H](NC(=O)c2ccc(NN)nc2)CCC(=O)N[C@@H](C)C(=O)N[C@@H](Cc2ccc(O)cc2)C(=O)N1)C(=O)N[C@@H](CC(=O)O)C(=O)N[C@@H](Cc1ccccc1)C(N)=O` yielded an IC50 of 2.54 nM.
The figure for `CCCCC[C@H](NC(=O)[C@H](Cc1c[nH]c2ccccc12)NC(=O)[C@H]1CCCCNC(=O)[C@H](NC(=O)c2ccc(NN)nc2)CCC(=O)N[C@@H](C)C(=O)N[C@@H](Cc2ccc(O)cc2)C(=O)N1)C(=O)N[C@@H](CC(=O)O)C(=O)N[C@@H](Cc1ccccc1)C(N)=O` is 3.23 nM.
